The source of these data is patent US12172993B2 (priority 2018, dated 2024).

Molecules are shown by their SMILES. ≈ marks a conversion by molar mass, not a printed value. Where two headings read alike, the source gives them in different places. Some results are limits rather than exact numbers.

Data set [1] addresses T1, RET (Homo sapiens (Human), UniProt P07949).
A short description of data set [2]: in vivo. The conditions noted are these: male, CD1, mouse.
A further data set is described as follows: in vitro. Conditions: dog, MDCK.
The next data set deals with MDR1. The data set can be described thus: in vitro. The conditions noted are these: dog, MDCK-MDR1.
The target of the next data set is hERG potassium channel (Homo sapiens (Human), UniProt Q12809). Conditions: 3 uM; from NDA 21-986 review; cited from earlier work.
A further data set has as its target PDGFR-beta (Homo sapiens (Human), UniProt P09619). The data set can be described thus: biochemical. Conditions: read-out: Residual activity (%) at 1 μM.
The next data set deals with BMPR1A (Homo sapiens (Human), UniProt P36894). The data set can be described thus: biochemical. The conditions noted are these: read-out: Residual activity (%) at 1 μM.
The target of data set [3] is T1, RET. The data set is described as follows: biochemical. Conditions: read-out: Residual activity (%) at 1 μM, RET.
The target in a further data set is MST4 (Homo sapiens (Human), UniProt Q9P289). The data set can be described thus: biochemical. The conditions noted are these: read-out: Residual activity (%) at 1 μM.
The next data set deals with WEE1 (Homo sapiens (Human), UniProt P30291). The data set can be described thus: biochemical. Conditions: read-out: Residual activity (%) at 1 μM.
A short description of the next data set: physchem. The data set is classed as physicochemical.
The conditions of data set [4]: human, microsomes.
The next data set has as its target RAF1 (Homo sapiens (Human), UniProt P04049, Y340D/Y341D). In kind it is biochemical. Conditions: read-out: Residual activity (%) at 1 μM.
For data set [5], the system named is cell-panel representing haematological cancers. The data set is described as follows: haematological cancer cell-panel growth inhibition (Oncolead). In kind it is cell-based.
A further data set relates to PANC-1 cells. The data set is described as follows: real-time live cell microscopy of TNF-induced cell death (YOYO-1). In kind it is cell-based. The conditions noted are these: real-time live cell assay.
Data set [6] concerns immune cells present in the tumour microenvironment.
Data set [7] relates to MC38 cells.
The test system of a further data set is NFKB activity. Conditions: PANC-1 reporter cells; in words.
For data set [8], the system named is MC38 cells. The data set is described as follows: cells. Conditions: Mus musculus, MC-38, 72 h, read-out: MC38 IC50 (nM at 100 ng/mL TNF).
A short description of data set [9]: maximal tolerable dose (MTD) study in female C57Bl/6 mice.
Data set [10] is described as follows: in vivo. The conditions noted are these: CD1, mouse, plasma, oral, 30 mg/kg; read-out: Free concentration (nM) at timepoint after 30 mg/kg po.
A further data set concerns the target SIK3 (Homo sapiens (Human), UniProt Q9Y2K2). The data set can be described thus: biochemical.
For data set [11] the following is noted: humans; prescribing information; cited from earlier work.
Where [12] appears, read: twice daily treatment, intra-tumoural.

One may read the Cmax as the maximum level reached in the sampled fluid or tissue. Broadly, the MRT inf is a mean duration of stay, worked out from the concentration-time curve. Usually MRT last stands for the average time that molecules of a dose stay in the body. In general, Tmax refers to the time from dosing to the highest level. As a reminder, the Vd is the apparent volume that relates the amount in the body to the concentration in plasma or blood. Lower therefore signals little distribution into tissue. The clearance is the volume of plasma or blood freed of the substance per unit of time. The bioavailability is dose-corrected exposure relative to a reference, in per cent. A low value points to little systemic uptake. In general, Papp refers to a coefficient for how fast a substance crosses the barrier. High values mean ready permeation, low ones poor permeation. By kinetic solubility is commonly meant solubility judged after dilution from a stock solution rather than from solid. The term half-life denotes the time in which the quantity being followed falls by half. The low end stands for fast loss, the high end for slow loss. The term AUC(0-inf) denotes total exposure, with the tail of the curve extrapolated. A high value points to more exposure. As usually defined, the AUC(0-t) is the area under the concentration-time curve up to a stated or last time point. Usually GI50 stands for the concentration that inhibits growth by half.

T1 sequence (P07949 29-1114 limits assumed): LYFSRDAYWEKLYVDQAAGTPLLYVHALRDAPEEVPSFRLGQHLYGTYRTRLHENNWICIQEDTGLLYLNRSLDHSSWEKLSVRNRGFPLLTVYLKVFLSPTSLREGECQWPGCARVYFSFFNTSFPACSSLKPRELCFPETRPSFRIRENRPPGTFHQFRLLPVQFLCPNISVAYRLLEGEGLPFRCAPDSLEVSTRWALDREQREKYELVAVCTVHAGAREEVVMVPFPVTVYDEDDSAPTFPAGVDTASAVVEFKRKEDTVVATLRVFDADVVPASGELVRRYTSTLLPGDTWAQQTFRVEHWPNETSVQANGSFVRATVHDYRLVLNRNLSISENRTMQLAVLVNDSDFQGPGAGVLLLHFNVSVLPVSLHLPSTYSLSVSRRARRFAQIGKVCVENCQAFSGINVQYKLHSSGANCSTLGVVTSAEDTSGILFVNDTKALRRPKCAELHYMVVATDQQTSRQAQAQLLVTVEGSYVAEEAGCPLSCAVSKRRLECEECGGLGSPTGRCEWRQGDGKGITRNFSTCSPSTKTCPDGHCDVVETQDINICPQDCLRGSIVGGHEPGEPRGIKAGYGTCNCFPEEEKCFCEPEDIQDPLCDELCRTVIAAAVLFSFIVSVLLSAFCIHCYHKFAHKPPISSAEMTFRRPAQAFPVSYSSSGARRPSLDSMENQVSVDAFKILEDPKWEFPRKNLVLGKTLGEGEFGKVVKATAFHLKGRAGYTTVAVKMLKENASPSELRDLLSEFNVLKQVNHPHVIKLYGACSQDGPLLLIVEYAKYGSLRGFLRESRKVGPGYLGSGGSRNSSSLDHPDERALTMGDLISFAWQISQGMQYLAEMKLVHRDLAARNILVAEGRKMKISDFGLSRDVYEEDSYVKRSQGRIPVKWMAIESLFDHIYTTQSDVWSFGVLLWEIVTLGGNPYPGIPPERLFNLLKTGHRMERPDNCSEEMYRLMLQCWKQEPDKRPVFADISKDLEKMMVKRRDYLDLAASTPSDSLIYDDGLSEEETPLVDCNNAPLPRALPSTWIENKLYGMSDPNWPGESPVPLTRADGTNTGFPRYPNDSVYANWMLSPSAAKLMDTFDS
Sequence of PDGFR-beta (P09619 33-1106 limits assumed): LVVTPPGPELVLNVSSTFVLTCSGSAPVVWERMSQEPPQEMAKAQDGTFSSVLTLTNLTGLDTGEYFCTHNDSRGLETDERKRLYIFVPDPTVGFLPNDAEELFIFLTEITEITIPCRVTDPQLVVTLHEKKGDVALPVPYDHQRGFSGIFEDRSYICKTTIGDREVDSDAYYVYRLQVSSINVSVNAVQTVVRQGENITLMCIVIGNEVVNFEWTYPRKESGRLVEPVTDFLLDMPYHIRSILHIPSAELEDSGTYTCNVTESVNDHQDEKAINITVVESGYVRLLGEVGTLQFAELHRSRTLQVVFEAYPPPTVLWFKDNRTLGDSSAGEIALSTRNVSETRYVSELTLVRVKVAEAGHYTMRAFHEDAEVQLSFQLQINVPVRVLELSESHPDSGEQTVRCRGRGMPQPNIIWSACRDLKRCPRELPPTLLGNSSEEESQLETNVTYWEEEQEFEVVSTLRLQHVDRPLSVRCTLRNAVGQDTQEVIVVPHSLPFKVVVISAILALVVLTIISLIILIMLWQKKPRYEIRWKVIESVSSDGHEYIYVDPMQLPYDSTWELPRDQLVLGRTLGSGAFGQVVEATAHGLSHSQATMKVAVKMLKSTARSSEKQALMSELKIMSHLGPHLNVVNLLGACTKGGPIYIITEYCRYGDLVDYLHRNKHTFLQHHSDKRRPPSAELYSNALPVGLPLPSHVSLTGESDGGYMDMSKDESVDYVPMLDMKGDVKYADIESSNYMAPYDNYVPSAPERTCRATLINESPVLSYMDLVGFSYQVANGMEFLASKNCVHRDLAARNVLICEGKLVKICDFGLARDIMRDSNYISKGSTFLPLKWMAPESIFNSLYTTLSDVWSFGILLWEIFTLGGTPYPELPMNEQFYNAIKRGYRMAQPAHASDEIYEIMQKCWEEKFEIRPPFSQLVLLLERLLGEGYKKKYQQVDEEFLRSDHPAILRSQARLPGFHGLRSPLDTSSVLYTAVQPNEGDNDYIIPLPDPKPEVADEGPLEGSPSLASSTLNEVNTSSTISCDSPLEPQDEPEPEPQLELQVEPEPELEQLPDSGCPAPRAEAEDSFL
Sequence of BMPR1A (P36894 24-532 limits assumed): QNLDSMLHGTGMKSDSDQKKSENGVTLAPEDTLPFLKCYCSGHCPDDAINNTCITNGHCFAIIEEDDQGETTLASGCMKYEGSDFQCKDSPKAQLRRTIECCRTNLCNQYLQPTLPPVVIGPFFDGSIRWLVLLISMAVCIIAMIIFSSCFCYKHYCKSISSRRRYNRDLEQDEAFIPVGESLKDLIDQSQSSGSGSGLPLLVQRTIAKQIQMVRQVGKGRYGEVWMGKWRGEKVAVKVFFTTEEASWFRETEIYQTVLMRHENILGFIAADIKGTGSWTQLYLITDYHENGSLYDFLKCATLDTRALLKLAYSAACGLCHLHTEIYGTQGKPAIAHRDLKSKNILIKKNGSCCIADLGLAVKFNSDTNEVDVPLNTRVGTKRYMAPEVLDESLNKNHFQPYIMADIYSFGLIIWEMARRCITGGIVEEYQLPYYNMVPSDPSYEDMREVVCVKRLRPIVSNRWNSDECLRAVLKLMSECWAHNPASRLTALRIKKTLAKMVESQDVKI
Sequence of RAF1 (P04049 307-648 Y340D/Y341D limits assumed): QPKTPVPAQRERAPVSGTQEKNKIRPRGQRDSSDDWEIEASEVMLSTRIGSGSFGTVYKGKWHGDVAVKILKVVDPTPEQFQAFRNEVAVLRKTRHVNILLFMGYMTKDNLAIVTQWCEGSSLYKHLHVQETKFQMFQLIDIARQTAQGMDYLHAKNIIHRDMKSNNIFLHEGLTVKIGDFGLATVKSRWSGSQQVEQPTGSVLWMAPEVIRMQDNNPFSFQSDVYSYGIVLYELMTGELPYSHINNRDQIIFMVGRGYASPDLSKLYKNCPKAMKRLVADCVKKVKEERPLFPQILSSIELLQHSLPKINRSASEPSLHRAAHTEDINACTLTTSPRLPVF

For `Cc1nc(Nc2ncc(C(=O)Nc3c(C)cccc3Cl)s2)cc(N2CCN(CCO)CC2)n1` [Compound A8, N-(2-chloro-6-methylphenyl)-2-((6-(4-(2-hydroxyethyl)piperazin-1-yl)-2-methylpyrimidin-4-yl)amino)thiazole-5-carboxamide, reference compound], the “Residual activity (%) at 1 μM” value on RET [1] was determined as 39%. Also, in the data set “in vivo [2]” (plasma, iv, 1 mg/kg), the Cmax was determined as 1280 nM, the MRT inf was 96 min, the MRT last was 78 min and the Tmax amounted to 4.8 min. In the data set “in vivo [2]” (plasma, iv, 1 mg/kg), this compound had a Vd of 3.1 L/kg and a clearance of 32 mL/min/kg. In addition, in “in vivo [2]” (plasma, po, 30 mg/kg), the concentration peaked (Cmax) at 1130 nM, the Tmax was determined as 120 min and the bioavailability was 21%. Moreover, the Papp in the data set “in vitro” was determined as 49 ×10⁻⁶ cm/s. The compound also gave a Papp in the data set with MDR1 of 105 ×10⁻⁶ cm/s. In addition, at hERG potassium channel, the “inhibition of hERG currents” value is listed as “about 6%”. Also, the remaining activity at 1 µM on PDGFR-beta is 2%. In addition, at BMPR1A, the remaining activity at 1 µM was found to be 42%. In addition, the remaining activity at 1 µM on RET [3] was under 40%. The remaining activity at 1 µM on MST4 was found to be 79%. For the same compound, on WEE1, the remaining activity at 1 µM was 61%.

With `Cc1nc(Nc2ncc(C(=O)Nc3c(Cl)ccnc3C)s2)cc(N2CCN(CCO)CC2)n1` [Compound B3, N-(4-chloro-2-methylpyridin-3-yl)-2-((6-(4-(2-hydroxyethyl)piperazin-1-yl)-2-methylpyrimidin-4-yl)amino)thiazole-5-carboxamide], the kinetic solubility in the data set “physchem” came to 82 µM (≈ 40.1 µg/mL). The compound also yielded a kinetic solubility in the data set “physchem” (kinetic from dmso stock) of 82 µM (≈ 40.1 µg/mL). In data set [4], the Intrinsic clearance (L/min/mg) stood at 24 µL/min/mg, the “half-life” value came out at 58 min and the “% Remaining at 40 min (%)” value was 60%. In addition, the “Percentage unbound (%)” value in the data set on human plasma-proteins was 7%. The “Percentage unbound (%)” value with murine plasma-proteins came out at 11%. In “in vivo [2]” (plasma, iv, 1 mg/kg), this compound had an AUC(0-inf) of 0.45 µM·h, an AUC(0-t) of 0.437 µM·h, a Cmax of 1230 nM and an MRT inf of 17.4 min. In addition, in “in vivo [2]” (plasma, iv, 1 mg/kg), the MRT last was 15 min, the Tmax worked out at 4.98 min, the Vd turned out to be 1.31 L/kg and the clearance was found to be 75 mL/min/kg. Further, in “in vivo [2]” (plasma, po, 30 mg/kg), the AUC(0-inf) was 0.687 µM·h, the AUC(0-t) was 0.589 µM·h, the highest level (Cmax) was 202 nM and the time to peak (Tmax) turned out to be 30 min. For the same compound, in the data set “in vivo [2]” (plasma, po, 30 mg/kg), the bioavailability amounted to 4%. Also, in “in vitro”, the Papp came to 20 ×10⁻⁶ cm/s. The same compound showed a Papp with MDR1 of 20 ×10⁻⁶ cm/s.

In the case of `Cc1nc(Nc2ncc(C(=O)Nc3c(C)csc3Cl)s2)cc(N2CCN(CCO)CC2)n1` [Compound C7, N-(2-chloro-4-methylthiophen-3-yl)-2-((6-(4-(2-hydroxyethyl)piperazin-1-yl)-2-methylpyrimidin-4-yl)amino)thiazole-5-carboxamide], the remaining activity at 1 µM on RAF1 lay in the range of 4 to 5%. The GI50 activity entry in data set [5] (on about 5 cell lines of the panel) was “sub-nanomolar”. Besides, in data set [5] (read-out: GI50 activity), the GI50 is under 0.01 µM. In the data set on PANC-1 cells, the “sensitisation to the effect of rHuTNF” value is “sensitise PANC-1 cells to the effect of rHuTNF”. Further, the “% Remaining at 40 min (%)” value in [4] was 1%. Besides, the “Percentage unbound (%)” value in the data set on human plasma-proteins (human plasma-protein binding) is under 1%. Further, the “Percentage unbound (%)” value in the data set on murine plasma-proteins (murine plasma protein binding) is 5%. In addition, in [6] (mouse, in vivo), the “immunosuppressive M2 macrophages (CD206+MHC-II+)” value is on record as “significantly reduced”. For the same compound, in data set [6] (setting [12]), the “activation of cytotoxic T lymphocytes, CD25+CD69+” value is “increased activation” and the “activation of cytotoxic T lymphocytes, granzyme B expression” value is reported as “increased activation”. Also, the “sensitisation to the cytotoxic effect of TNF” value in the data set on MC38 cells [7] is reported as “sensitised to the cytotoxic effect of TNF”. In addition, the “TNF-induced activity of NFkB” value with NFKB activity is “inhibit TNF-induced activity of NFkB in a dose-dependent manner”. Moreover, the “phosphorylation of HDAC4” value in the data set with HDAC4 phosphorylation is on record as “inhibit the phosphorylation of HDAC4”. Besides, in the data set on MC38 cells [8], the IC50 is under 100 nM. In “in vivo [2]” (in vivo, iv, 1 mg/kg), this compound showed an MRT inf of 60 min and an MRT last of 42 min. Besides, the signs of intolerance entry in data set [9] (33 and 100 mg/kg QD or BID, 7 consecutive days) is recorded as “did not show any signs of intolerance”. Besides, the body weight result in data set [9] (all dosing groups vs non-treated control animals) is reported as “minor reduction in body weight”. The tolerable dose result in data set [9] (gavage, female C57BL/6 animals, seven days) was “up to 100 mg/kg BID”.

For the compound `Cc1nc(Nc2ncc(C(=O)Nc3c(Cl)csc3Cl)s2)cc(N2CCN(CCO)CC2)n1` [Compound D7, N-(2,4-dichlorothiophen-3-yl)-2-((6-(4-(2-hydroxyethyl)piperazin-1-yl)-2-methylpyrimidin-4-yl)amino)thiazole-5-carboxamide], in the data set “in vivo [10]”, the concentration at 2 h amounted to 43 nM, the concentration at 6 h was determined as 5 nM and the concentration at 12 h was 1.1 nM. Also, the IC50 with MC38 cells [8] is under 200 nM. At SIK3, the IC50 lay in the range of 0.015 to 0.02 µM.

With `Cc1cn(-c2cc(NC(=O)c3ccc(C)c(Nc4nccc(-c5cccnc5)n4)c3)cc(C(F)(F)F)c2)cn1` [nilotinib], the “terminal / elimination half-life” value in data set [11] was “approximately 17 hours”.
